Data from patent publication US20090274739A1, “METHODS AND COMPOSITIONS FOR TREATING NEOINTIMAL HYPERPLASIA” (THE TRUSTEES OF COLUMBIA UNIVERSITY IN THE CITY OF NEW YORK, priority 2006, published 2009).
“Also recorded” adds a separate entry of the source.

Assays:
[1] = system: murine femoral artery wire injury model (neointimal hyperplasia); assay: Femoral artery wire injury model, morphometry of neointimal formation; type: in vivo, mouse; set-up: Lumen / Media / Intima / TVA (total vessel area): unit not given here
Excerpt: Animal Models and Drug Treatments. Wild type C57BL/6J background mice and mice deficient for leptin (C57BL/6J-Lepob; ob/ob) or the leptin receptor (C57BL/6J-m+/+Lepdb; db/db) were purchased from Charles Jackson Laboratories, Maine. Mice were obtained at ages 6-8 weeks old and average weight 15 g. Animals were fed standard rodent chow and tap water ad libitum. Procedures and animal care were approved by the Institutional Animal Care and Use Committee. Mice were subjected to femoral artery wire injury or sham injury described below 24 hr prior to starting pharmacological treatments. Sirolimus was administered by intraperitoneal injection once per day for 14 days as a suspension in 0.2% sodium carboxymethyl cellulose and 0.25% polysorbate-80; duplicate experiments were accomplished with 0.5% DMSO. Leptin or LY294002 was administered by intraperitoneal injection once per day for 14 days as a suspension in PBS. Plasma leptin levels were measured at baseline, 3, 6, and 10 hr after leptin injection using an ELISA assay (R&D). Leptin plus the vehicle used for both sirolimus and LY294002 was used as the control group for the treatment groups with sirolimus and LY294002. After the 2-week treatment, animals were processed for femoral artery morphometry.
Femoral Artery Injury Model. Endoluminal injury of bilateral femoral arteries was performed according to the method of Roque et al. with minor modification 27. […] Briefly, to denude and dilate femoral arteries, a 0.014″ angioplasty guidewire (Guidant) was passed endoluminally 3 times to the level of the aortic bifurcation. A sham protocol was performed where the arteries underwent dissection, clamping, and ligature without passage of the guidewire.
Computer-aided quantitative morphometry to measure luminal, medial, intimal, and vessel areas were performed as previously described 27 with minor modification. Mice were euthanized via CO2 asphyxiation prior to en bloc excision of hind limbs. Briefly, multiple segments of the common femoral artery at the level of injury were fixed in 10% Zinc Formalin, embedded in paraffin, sectioned at […] thickness, and subjected to Elastic-Van Gieson staining at a Columbia University Core Histology facility. In many cases, arteries underwent immunohistochemical staining for smooth muscle a-actin to highlight the media and neointima. Photomicrographs were captured on Adobe Photoshop 7.0 and transferred to Scion Image software for quantitative analysis. Specimens were analyzed by two independent operators blinded to the treatment groups. Microsoft Excel software was used to calculate the RNI values from I/M ratios in the absence and presence of pharmacological inhibitors, as detailed in the text.
Surgical Procedures: The mouse femoral artery wire injury model of was used with minor modifications (Roque M, et al., Arterioscler Thromb Vasc Biol, 2000, 20(2):335-42). Briefly, forty-two male mice were studied. Endoluminal injury to the common femoral artery was produced by either 3 passages of a 0.014″ diameter angioplasty guidewire (Guidant, Santa Clara, Calif.). […] While being viewed under a surgical microscope, a groin incision was made and the femoral artery was isolated and temporarily clamped distal to the inguinal ligament. An arteriotomy was performed and the guidewire was passed 3 times to the level of the aortic bifurcation. The artery was then ligated proximal to the arteriotomy. A sham protocol was carried out on the contralateral side where the arteries underwent dissection, temporary clamping, and ligature, without passage of the wire. The formation of the neointima was confirmed in this model as being comprised mainly of VSMCs through immunohistochemical staining of representative sections for α-smooth muscle actin via a commercial kit (Sigma).
For all treatment protocols, rapamycin was administered by intraperitoneal injection once per day, for 14 days, as a suspension in 0.2% sodium carboxymethyl cellulose and 0.25% polysorbate-80. […]

[2] = system: primary murine aortic vascular smooth muscle cells (VSMC); assay: VSMC proliferation assay (Coulter counter / MTS-based); type: cell-based, mouse
Protocol: The methods used in the above experiments were as follows: Cell Culture and VSMC Proliferation Assays. Primary VSMC were isolated from aortic explants of wildtype, ob/ob, or db/db mice in the method of Roque et al. 30. VSMC were routinely cultured in Dulbecco's Modified Eagle's Medium (DMEM) containing either 4500 or 1250 mg/L glucose supplemented with 20% FBS at 37° C. in a 5% CO2 incubator. […] Cells were plated at 200,000 cells/ well of a 6 well dish and subsequently serum starved for 72 hr in DMEM media supplemented with 0.1 % FBS. Leptin dissolved in PBS was added directly to serum-free media at concentrations of 1, 10, or 100 ng/ml with […] LY294002 or U0126, and cells were grown for another 72 hr before harvesting. VSMC proliferation was measured by counting samples using a Coulter counter or using the Cell Titre 96 Aqueous One Solution Cell Proliferation Assay kit (Promega). Cell viability was assessed by Trypan Blue staining.
Proliferation of VSMCs: VSMC proliferation was measured by counting triplicate samples using a Coulter counter or using the CellTitier 96 Aqueous One Solution Cell Proliferation Assay (Promega, Madison, Wis.) kit per manufacturer's instructions. Cell viability was assessed via staining with Trypan Blue.
Murine VSMCs (2×10^4 cells/well) were incubated in a 6-well tissue culture plate for 72 hours in DMEM containing 0.1% FBS with or without insulin (10 or 100 nmol/L) and with 0, 1, 10, or 100 nmol/L rapamycin. Triplicate samples were counted using a Coulter counter and were normalized as percentage of the control group. Cell viability was checked via Trypan blue staining.
Murine VSMCs, seeded 2×10^4 cells/well in a 6-well plate, were starved for 72 hrs in DMEM with 0.1% FBS. Rapamycin, leptin, or insulin in different concentrations indicated in the figure were incubated with VSMCs in DMEM with 0.1% of FBS for 72 hrs. Triplicate samples were counted via a Coulter counter. Cell viability was checked via Trypan blue staining. […] In panel C, VSMCs were exposed to U0126, a specific MEK1/2 inhibitor, or LY294002, a specific PI3K inhibitor.
Primary VSMC were isolated from aortic explants of WT, ob/ob, or db/db mice (46). VSMC proliferation was determined using the Cell Titre Aqueous One Solution Proliferation Assay (Promega, Madison, Wis.). Migration to PDGF-BB was assessed in a modified Boyden chamber assay (47).

[3] = wire injury, leptin 0.4 mg/kg daily i.p. 14 days, mean ± SD

Substance: Leptin: recombinant leptin; hormone derived from adipose tissue, encoded by the Ob gene
- intimal area and intimal:media ratio ([1]; Example 2, leptin 0.4 mg/kg/d i.p. 14 days vs vehicle): significantly increased
- I/M (intima:media ratio) [1, 3]: 1.883 ± 0.140
- Intima [1, 3]: 0.028 ± 0.004
- Lumen [1, 3]: 0.010 ± 0.004
- Media [1, 3]: 0.015 ± 0.001
- TVA (total vessel area) [1, 3]: 0.053 ± 0.007
- VSMC proliferation ([2]; Example 2, high (4500 mg/L) and normal (1250 mg/L) glucose, various leptin concentrations): potentiated the proliferation of VSMCs in a dose-dependent manner
- VSMC proliferation ([2]; co-incubation of leptin 100 ng/ml with insulin 10 nmol/L): ~80%
- VSMC proliferation ([2]; leptin receptor-defective (db/db) VSMC, leptin 1, 10, 100 ng/ml): not
- VSMC proliferation ([2]; leptin-deficient (ob/ob) VSMC, leptin 1, 10, 100 ng/ml): induced dose-dependent VSMC proliferation; also recorded: can induce VSMC proliferation; also recorded: increased
- VSMC proliferation ([2]; wild type C57BL/6J VSMC, leptin 1, 10, 100 ng/ml (0.06, 0.6, 6 nM), 72 h, vs vehicle): increased murine VSMC proliferation in a dose-dependent fashion
- VSMC proliferation ([2]; wild type C57BL/6J VSMC, leptin 1, 10, 100 ng/ml (0.06, 0.6, 6 nM), 72 h, vs vehicle, listed as leptin): increased
